Experimental data taken from PubChem BioAssay (NCI).
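Values below derive from 48-hour exposures of cells grown in 96-well plates, with endpoints linearly interpolated between the two concentrations bracketing the appropriate inhibition level. At the GI50, growth is halved. Definition used: TGI = concentration required for complete inhibition of growth.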

Key:
Experiment in all cases: NCI-60 cell line screen, 48 h
[1] = test system: 786-0 renal
[2] = test system: A498 renal
[3] = test system: A549 NSCLC
[4] = test system: ACHN renal
[5] = test system: BT-549 breast
[6] = test system: CAKI-1 renal
[7] = test system: CCRF-CEM leukemia
[8] = test system: COLO 205 colon
[9] = test system: DU-145 prostate
[10] = test system: EKVX NSCLC
[11] = test system: HCC-2998 colon
[12] = test system: HCT-116 colon
[13] = test system: HCT-15 colon
[14] = test system: HL-60(TB) leukemia
[15] = test system: HOP-62 NSCLC
[16] = test system: HOP-92 NSCLC
[17] = test system: HS 578T breast
[18] = test system: HT29 colon
[19] = test system: IGROV1 ovarian
[20] = test system: K-562 leukemia
[21] = test system: KM12 colon
[22] = test system: LOX IMVI melanoma
[23] = test system: M14 melanoma
[24] = test system: MALME-3M melanoma
[25] = test system: MCF7 breast
[26] = test system: MDA-MB-231 breast
[27] = test system: MDA-MB-435
[28] = test system: MOLT-4 leukemia
[29] = test system: NCI-H226 lung
[30] = test system: NCI-H23 lung
[31] = test system: NCI-H460 lung
[32] = test system: NCI-H522 lung
[33] = test system: NCI/ADR-RES ovarian
[34] = test system: OVCAR-3 ovarian
[35] = test system: OVCAR-4 ovarian
[36] = test system: OVCAR-5 ovarian
[37] = test system: OVCAR-8 ovarian
[38] = test system: PC-3 prostate
[39] = test system: RPMI-8226 leukemia
[40] = test system: RXF 393 renal
[41] = test system: SF-268 CNS
[42] = test system: SF-295 CNS
[43] = test system: SF-539 CNS
[44] = test system: SK-MEL-2 melanoma
[45] = test system: SK-MEL-28 melanoma
[46] = test system: SK-MEL-5 melanoma
[47] = test system: SK-OV-3 ovarian
[48] = test system: SN12C renal
[49] = test system: SNB-19 CNS
[50] = test system: SNB-75 CNS
[51] = test system: SR leukemia
[52] = test system: SW-620 colon
[53] = test system: T-47D breast
[54] = test system: TK-10 renal
[55] = test system: U251 CNS
[56] = test system: UACC-257 melanoma
[57] = test system: UACC-62 melanoma
[58] = test system: UO-31 renal

## O=C1/C=C/[C@@H](O)[C@@H]2C[C@@H](O)C[C@H]2/C=C/CCC[C@H](CCOCc2ccccc2)O1
[1]
  GI50: 22.3 nM
  TGI: 53.7 nM
[2]
  GI50: 17.8 nM
  TGI: 123 nM
[3]
  GI50: 66 nM
  TGI: > 100000 nM
[4]
  GI50: 317 nM
  TGI: > 100000 nM
[5]
  GI50: 117 nM
  TGI: > 21900 nM
[6]
  GI50: 331 nM
  TGI: > 100000 nM
[7]
  GI50: 301 nM
  TGI: > 100000 nM
[8]
  GI50: 29.2 nM
  TGI: 80.9 nM
[9]
  GI50: 412 nM
  TGI: > 100000 nM
[10]
  GI50: 141 nM
  TGI: > 100000 nM
[11]
  GI50: 110 nM
[12]
  GI50: 162 nM
  TGI: 379 nM
[13]
  GI50: 290 nM
  TGI: 12900 nM
[14]
  GI50: 282 nM
  TGI: 3310 nM
[15]
  GI50: 73.8 nM
  TGI: > 100000 nM
[16]
  GI50: 234 nM
  TGI: 909 nM
[17]
  GI50: < 22.6 nM
  TGI: > 100000 nM
[18]
  GI50: 27.4 nM
  TGI: 212 nM
[19]
  GI50: 335 nM
  TGI: > 26300 nM
[20]
  GI50: 327 nM
  TGI: > 100000 nM
[21]
  TGI: 31 nM
[22]
  GI50: 35.2 nM
  TGI: 168 nM
[23]
  GI50: 40.3 nM
  TGI: 13200 nM
[24]
  GI50: 36.5 nM
  TGI: 428 nM
[25]
  GI50: 39.9 nM
  TGI: 177 nM
[26]
  GI50: 102 nM
  TGI: 267 nM
[27]
  GI50: 53.9 nM
  TGI: > 100000 nM
[28]
  GI50: 305 nM
  TGI: > 43700 nM
[29]
  GI50: 18.8 nM
  TGI: 251 nM
[30]
  GI50: 105 nM
  TGI: 714 nM
[31]
  GI50: 380 nM
  TGI: > 100000 nM
[32]
  GI50: 234 nM
  TGI: 577 nM
[33]
  GI50: 46.9 nM
  TGI: 5270 nM
[34]
  GI50: 39 nM
  TGI: 187 nM
[35]
  GI50: 64.3 nM
  TGI: > 41200 nM
[36]
  GI50: 246 nM
  TGI: > 100000 nM
[37]
  GI50: 52.3 nM
[38]
  GI50: 164 nM
  TGI: > 100000 nM
[39]
  GI50: 297 nM
  TGI: 20600 nM
[40]
  GI50: < 13.9 nM
  TGI: 43.6 nM
[41]
  GI50: 37.6 nM
  TGI: > 100000 nM
[42]
  GI50: 51 nM
  TGI: > 100000 nM
[43]
  GI50: 112 nM
  TGI: > 100000 nM
[44]
  GI50: 172 nM
  TGI: 649 nM
[45]
  GI50: < 17 nM
  TGI: 84.9 nM
[46]
  GI50: < 13.4 nM
  TGI: 22.7 nM
[47]
  GI50: 48.1 nM
  TGI: > 100000 nM
[48]
  GI50: 272 nM
  TGI: > 100000 nM
[49]
  GI50: 138 nM
  TGI: > 100000 nM
[50]
  GI50: < 27.7 nM
  TGI: > 95400 nM
[51]
  GI50: 142 nM
[52]
  GI50: 99.4 nM
  TGI: 822 nM
[53]
  GI50: 192 nM
  TGI: 556 nM
[54]
  GI50: 186 nM
  TGI: 658 nM
[55]
  GI50: 97.8 nM
  TGI: > 100000 nM
[56]
  GI50: 16.1 nM
  TGI: 2320 nM
[57]
  GI50: 37.2 nM
  TGI: 12600 nM
[58]
  GI50: 70.1 nM
  TGI: 26600 nM

## O=C(/C=C/c1ccc2ccccc2c1)NCc1ccc(C(=O)NCc2ccccc2)cc1
[1]
  TGI: > 100000 nM
[2]
  TGI: > 100000 nM
[3]
  TGI: > 100000 nM
[4]
  TGI: > 100000 nM
[5]
  TGI: > 100000 nM
[6]
  TGI: > 73100 nM
[7]
  TGI: > 100000 nM
[8]
  TGI: > 100000 nM
[9]
  TGI: > 100000 nM
[10]
  TGI: > 100000 nM
[11]
  TGI: > 100000 nM
[12]
  TGI: > 100000 nM
[13]
  TGI: > 100000 nM
[14]
  TGI: 38800 nM
[15]
  TGI: 52900 nM
[16]
  TGI: > 100000 nM
[17]
  TGI: > 100000 nM
[18]
  TGI: > 100000 nM
[19]
  TGI: > 100000 nM
[20]
  TGI: > 31600 nM
[21]
  TGI: > 100000 nM
[22]
  TGI: > 100000 nM
[23]
  TGI: > 100000 nM
[24]
  TGI: > 100000 nM
[25]
  TGI: > 100000 nM
[26]
  TGI: > 100000 nM
[27]
  TGI: > 100000 nM
[28]
  TGI: > 100000 nM
[29]
  TGI: 86800 nM
[30]
  TGI: > 100000 nM
[31]
  TGI: > 100000 nM
[32]
  TGI: > 100000 nM
[33]
  TGI: > 100000 nM
[34]
  TGI: > 100000 nM
[35]
  TGI: > 100000 nM
[36]
  TGI: > 100000 nM
[37]
  TGI: > 100000 nM
[38]
  TGI: > 100000 nM
[39]
  TGI: > 100000 nM
[40]
  TGI: > 100000 nM
[41]
  TGI: > 100000 nM
[42]
  TGI: > 100000 nM
[43]
  TGI: > 100000 nM
[44]
  TGI: > 100000 nM
[45]
  TGI: > 100000 nM
[46]
  TGI: > 100000 nM
[47]
  TGI: > 100000 nM
[48]
  TGI: > 100000 nM
[49]
  TGI: > 100000 nM
[50]
  TGI: 71100 nM
[51]
  TGI: > 100000 nM
[52]
  TGI: > 100000 nM
[53]
  TGI: > 89600 nM
[54]
  TGI: > 100000 nM
[55]
  TGI: > 100000 nM
[56]
  TGI: > 100000 nM
[57]
  TGI: > 100000 nM
[58]
  TGI: > 100000 nM
